# Experimental data: patent US20230087609A1, “USE OF A SOLUBLE GUANYLATE CYCLASE (sGC) STIMULATOR OR OF A COMBINATION OF A sGC STIMULATOR AND AN sGC ACTIVATOR FOR CONDITIONS WHEREIN THE HEME GROUP OF sGC IS OXIDIZED OR WHEREIN sGC IS DEFICIENT IN HEME” (Universiteit Maastricht, priority 2020, published 2023)
# Molecular target: T1, apo-sGC (sGCβ1 H105F knock-in) (Mus musculus, UniProt O54865, H105F)
# T1 construct: from tissue; host or cells: lung homogenate of homozygous sGCβ1 H105F knock-in mice
# T1 sequence (O54865 1-620 H105F): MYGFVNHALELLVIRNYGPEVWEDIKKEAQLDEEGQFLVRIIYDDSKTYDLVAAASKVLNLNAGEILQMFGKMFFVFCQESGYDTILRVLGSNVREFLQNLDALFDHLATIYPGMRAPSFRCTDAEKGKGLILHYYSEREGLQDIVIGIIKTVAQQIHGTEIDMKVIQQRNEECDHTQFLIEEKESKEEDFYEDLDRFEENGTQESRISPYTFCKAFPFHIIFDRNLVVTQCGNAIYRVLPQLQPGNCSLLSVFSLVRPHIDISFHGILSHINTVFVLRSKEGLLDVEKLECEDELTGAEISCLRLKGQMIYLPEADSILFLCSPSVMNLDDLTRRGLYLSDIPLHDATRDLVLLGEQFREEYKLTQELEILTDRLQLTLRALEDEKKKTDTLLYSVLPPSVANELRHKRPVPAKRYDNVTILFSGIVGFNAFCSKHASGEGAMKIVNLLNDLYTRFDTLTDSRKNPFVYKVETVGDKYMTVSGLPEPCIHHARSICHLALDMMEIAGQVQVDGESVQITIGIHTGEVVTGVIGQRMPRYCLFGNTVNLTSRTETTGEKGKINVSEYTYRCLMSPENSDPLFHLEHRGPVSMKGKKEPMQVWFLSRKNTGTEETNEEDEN
# T1 sequence (Q9ERL9 1-691 partner): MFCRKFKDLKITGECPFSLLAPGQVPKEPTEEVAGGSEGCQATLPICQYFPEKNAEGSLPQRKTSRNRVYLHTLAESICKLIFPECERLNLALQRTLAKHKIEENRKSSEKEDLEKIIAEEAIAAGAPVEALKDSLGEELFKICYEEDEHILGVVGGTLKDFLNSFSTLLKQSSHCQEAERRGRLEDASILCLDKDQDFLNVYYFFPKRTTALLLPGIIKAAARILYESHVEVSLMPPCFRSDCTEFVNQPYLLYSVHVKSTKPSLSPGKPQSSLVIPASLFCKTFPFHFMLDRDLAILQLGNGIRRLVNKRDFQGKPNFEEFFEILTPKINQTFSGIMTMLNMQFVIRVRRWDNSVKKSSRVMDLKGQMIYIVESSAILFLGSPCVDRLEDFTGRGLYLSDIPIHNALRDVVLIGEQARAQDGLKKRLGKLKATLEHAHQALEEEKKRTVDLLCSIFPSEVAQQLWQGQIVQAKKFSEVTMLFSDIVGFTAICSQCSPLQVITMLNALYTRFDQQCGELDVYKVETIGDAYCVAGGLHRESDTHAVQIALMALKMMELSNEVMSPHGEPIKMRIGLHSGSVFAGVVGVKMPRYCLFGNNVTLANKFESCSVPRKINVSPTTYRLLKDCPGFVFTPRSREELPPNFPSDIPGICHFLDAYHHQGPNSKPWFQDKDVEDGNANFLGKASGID
# Assay: sGC activity in lung homogenates of apo-sGC mice
# Assay type: biochemical
# Experimental: Adult male Sprague Dawley (SD) rats (age, 10-12 weeks) were obtained from Animal Resources Centre (Western Australia). Animals were housed on a 12 hour day/night cycle at a room temperature of 20±2° C., in the Department of Pharmacology Animal House, Monash University. The animals were fed standard rodent chow and water was available ad libitum. Homozygous male sGC(1^H105F knock-in mice (“apo-sGC mice”) were kindly provided by Tufts Medical Center, Molecular Cardiology Research Center, Boston, Mass., USA (Toonen et al., Nat Commun. 2015; 6:8482. doi: 10.1038/ncomms9482).
# To measure sGC activity, cells were stimulated with 250 μM DEA/NO or 10 μM BAY58-2667 for 3 min at 37° C. Thereafter, cells were immediately lysed in 80% ethanol. Cells were scraped and, after evaporation of ethanol, re-suspended in assay buffer and sonicated. Measurement of sGC activity in crude homogenates of mouse tissue was performed as previously described (Nedvetsky et al., Brain Res. 2002; 950(1-2):148-154. doi: 10.1016/50006-8993(02)03015-9).[9] Briefly, all samples were measured as the formation of cGMP at 37° C. during 10 min in a total incubation volume of […] containing 50 mM triethanolamine-HCl (pH 7.4), 3 mM MgCl2, 3 mM glutathione (Carl Roth, Karlsruhe, Germany), 1 mM IBMX, […], 5 mM creatine phosphate, 0.25 mg/ml creatine kinase and 1 mM or 0.5 mM GTP. After adding sGC activator in the absence or presence of the sGC stimulator the reaction was started by application of GTP solution. Following incubation of each sample for 10 min the reaction was stopped by boiling for 10 min at 95° C. Thereafter the amount of cGMP was subsequently determined by a commercial enzyme immunoassay kit (Enzo Life Sciences, Lorrach, Germany or Biotrend, Cologne, Germany). In some experiments pre-incubation of freshly homogenized tissue with ODQ at 37° C. for 20 min prior measuring sGC activation was required.
compound,measurement,setting,value
"Nc1nc(-c2nn(Cc3ccccc3F)c3ncccc23)ncc1C1CC1 [BAY 41-2272, 5-cyclopropyl-2-[1-(2-fluoro-benzyl)-1H-pyrazolo[3,4-b]pyridin-3-yl]-pyrimidin-4-ylamine]",cGMP formation on stimulation with the sGC stimulator,"10 μM BAY 41-2272, in presence and in absence of 10 μM ODQ (FIG. 11)",cGMP is synthesized
same,"sGC activity, response to compound alone","lung homogenates of apo-sGC mice, compound alone",can also be activated
